The values that follow come from patent US10221173B2, “Chemical compounds” (AstraZeneca AB, priority 2017, dated 2019).

Usually IC50 stands for the concentration that gives 50% inhibition. One may read the solubility as the dissolved amount per volume that the medium holds.

Converted amounts (≈) assume the structure as drawn.

The target in series [1] is recombinant human Estrogen Receptor alpha ligand binding domain (ER alpha-LBD (GST)) (Homo sapiens (Human), UniProt P03372). The experiment in a line: ERα binding assay (LanthaScreen TR-FRET competition). For orientation: TR-FRET usually uses a lanthanide donor and a delayed reading to cut background.
Experimental: The ability of compounds to bind to isolated Estrogen Receptor Alpha Ligand binding domain (ER alpha—LBD (GST)) was assessed in competition assays using a LanthaScreen Time-Resolved Fluorescence Resonance Energy Transfer (TR-FRET) detection end-point. For the LanthaScreen TR-FRET endpoint, a suitable fluorophore (Fluormone ES2, ThermoFisher, Product code P2645) and recombinant human Estrogen Receptor alpha ligand binding domain, residues 307-554 (expressed and purified in-house) were used to measure compound binding. The assay principle is that ER alpha-LBD (GST) is added to a fluorescent ligand to form a receptor/fluorophore complex. A terbium-labelled anti-GST antibody (Product code PV3551) is used to indirectly label the receptor by binding to its GST tag, and competitive binding is detected by a test compound's ability to displace the fluorescent ligand, resulting in a loss of TR-FRET signal between the Tb-anti-GST antibody and the tracer. The assay was performed as follows with all reagent additions carried out using the Beckman Coulter BioRAPTR FRD microfluidic workstation: • 1. Acoustic dispense 120 nL of the test compound into a black low volume 384 well assay plates. • 2. Prepare 1× ER alpha-LBD/Tb-antiGST Ab in ES2 screening buffer and incubate for 15 minutes. • 3. […] Cover the assay plate to protect the reagents from light and evaporation, and incubate at room temperature for 4 hours. • 5. Excite at 337 nm and measure the fluorescent emission signal of each well at 490 nm and 520 nm using the BMG PheraSTAR.
TR-FRET dose response data obtained with each compound was exported into a suitable software package (such as Origin or Genedata) to perform curve fitting analysis. Competitive ER alpha binding was expressed as an IC50 value.
Series [2] concerns the target Estrogen Receptor (ERα) in MCF-7 cells (Homo sapiens (Human), UniProt P03372). The experiment in a line: MCF-7 ER down-regulation assay (immuno-fluorescence). It is filed as cell-based.
Series [3] in a line: Thermodynamic solubility (shake-flask). Type of series: physicochemical. The settings on record: aqueous phosphate buffer, 25 °C, pH 7.4, aqueous buffer, thermodynamic from solid, phosphate buffer pH 7.4, 24 hours.

Sequence of Estrogen Receptor (ERα) in MCF-7 cells (P03372 whole entry): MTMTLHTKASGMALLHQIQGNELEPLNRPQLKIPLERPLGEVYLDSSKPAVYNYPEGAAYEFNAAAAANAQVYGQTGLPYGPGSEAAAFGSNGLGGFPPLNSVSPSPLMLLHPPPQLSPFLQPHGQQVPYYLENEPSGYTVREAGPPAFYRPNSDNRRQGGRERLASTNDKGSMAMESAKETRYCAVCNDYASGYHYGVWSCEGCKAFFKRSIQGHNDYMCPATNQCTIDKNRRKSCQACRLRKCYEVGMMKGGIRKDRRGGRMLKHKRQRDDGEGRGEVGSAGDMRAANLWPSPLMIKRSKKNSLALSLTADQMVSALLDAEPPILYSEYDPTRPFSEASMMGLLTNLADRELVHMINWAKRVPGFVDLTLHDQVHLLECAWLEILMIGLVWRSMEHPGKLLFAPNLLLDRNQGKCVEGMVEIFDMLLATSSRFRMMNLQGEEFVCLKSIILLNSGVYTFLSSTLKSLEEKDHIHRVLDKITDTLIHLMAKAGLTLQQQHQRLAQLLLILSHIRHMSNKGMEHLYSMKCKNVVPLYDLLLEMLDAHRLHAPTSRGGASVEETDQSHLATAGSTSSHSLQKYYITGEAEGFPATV
Sequence of recombinant human Estrogen Receptor alpha ligand binding domain (ER alpha-LBD (GST)) (P03372 307-554): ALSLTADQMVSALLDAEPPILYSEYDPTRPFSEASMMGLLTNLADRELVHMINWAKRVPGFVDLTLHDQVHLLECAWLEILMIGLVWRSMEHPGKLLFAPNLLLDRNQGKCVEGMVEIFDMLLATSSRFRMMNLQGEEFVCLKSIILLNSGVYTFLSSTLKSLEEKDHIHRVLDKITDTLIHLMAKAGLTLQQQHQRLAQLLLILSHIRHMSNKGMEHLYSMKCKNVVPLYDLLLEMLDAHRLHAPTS

Consider `C[C@@H](CN1[C@H](c2c(F)cnc(OCCNCCCF)c2Cl)c2[nH]c3ccccc3c2C[C@H]1C(F)F)C(=O)O` [Example 139, (S)-3-((1R,3S)-1-(3-chloro-5-fluoro-2-(2-((3-fluoropropyl)amino)ethoxy)pyridin-4-yl)-3-(difluoromethyl)-1,3,4,9-tetrahydro-2H-pyrido[3,4-b]indol-2-yl)-2-methylpropanoic acid], for which the IC50 in series [1] is 1.5 nM; in series [2], 0.9 nM.
For the molecule `Cc1c(OCCNCCCF)ccc(F)c1[C@@H]1c2[nH]c3ccccc3c2C[C@@H](C)N1CC(F)(F)CO` [Example 45, 2,2-difluoro-3-((1R,3R)-1-(6-fluoro-3-(2-((3-fluoropropyl)amino)ethoxy)-2-methylphenyl)-3-methyl-1,3,4,9-tetrahydro-2H-pyrido[3,4-b]indol-2-yl)propan-1-ol], in series [3], the solubility at 24 h came to 227 µM (≈ 115 µg/mL).
For the molecule `Cc1c(OCCN(C)CCCF)ncc(F)c1[C@@H]1c2[nH]c3ccc(F)cc3c2C[C@@H](C)N1C[C@@H](C)C(=O)O` [Example 155, (2R)-3-[(1R,3R)-6-fluoro-1-[5-fluoro-2-[2-[3-fluoropropyl(methyl)amino]ethoxy]-3-methyl-4-pyridyl]-3-methyl-1,3,4,9-tetrahydropyrido[3,4-b]indol-2-yl]-2-methyl-propanoic acid], the half-inhibitory concentration (IC50) in series [1] was determined as 1 nM; in series [2] it was 0.21 nM.
For `C[C@@H]1Cc2c([nH]c3ccccc23)[C@@H](c2c(F)cnc(OCCNCCCF)c2Cl)N1C[C@H](C)C(=O)O` [Example 133, (S)-3-((1R,3R)-1-(3-chloro-5-fluoro-2-(2-((3-fluoropropyl)amino)ethoxy)pyridin-4-yl)-3-methyl-1,3,4,9-tetrahydro-2H-pyrido[3,4-b]indol-2-yl)-2-methylpropanoic acid], the IC50 in series [1] and in series [2] was 1.5 nM throughout.
As to `C[C@@H]1Cc2c([nH]c3ccccc23)[C@@H](c2c(F)ccc(OCCNCCCF)c2C(F)F)N1C[C@H](C)C(=O)O` [Example 125, (S)-3-((1R,3R)-1-(2-(difluoromethyl)-6-fluoro-3-(2-((3-fluoropropyl)amino)ethoxy)phenyl)-3-methyl-1,3,4,9-tetrahydro-2H-pyrido[3,4-b]indol-2-yl)-2-methylpropanoic acid], the IC50 is 1.3 nM in series [1] and 0.62 nM in series [2].
`Cc1ccc(OCCNCCCF)cc1[C@@H]1c2[nH]c3ccccc3c2C[C@@H](C)N1CC(F)(F)F` [Example 17, 3-fluoro-N-(2-(4-methyl-3-((1R,3R)-3-methyl-2-(2,2,2-trifluoroethyl)-2,3,4,9-tetrahydro-1H-pyrido[3,4-b]indol-1-yl)phenoxy)ethyl)propan-1-amine] displayed a solubility at 24 h in series [3] of 68 µM (≈ 32.5 µg/mL). That is a double-digit micromolar value.
Molecule `Cc1cc(OCCNCCCF)cc([C@@H]2c3[nH]c4ccccc4c3C[C@@H](C)N2CC(F)(F)F)c1` [Example 18, 3-fluoro-N-(2-(3-methyl-5-((1R,3R)-3-methyl-2-(2,2,2-trifluoroethyl)-2,3,4,9-tetrahydro-1H-pyrido[3,4-b]indol-1-yl)phenoxy)ethyl)propan-1-amine] returned a solubility at 24 h in series [3] of 27 µM (≈ 12.9 µg/mL).
For the molecule `Cc1c(OCCNCCCF)ccc(F)c1[C@@H]1c2[nH]c3ccccc3c2C[C@@H](C)N1CC1(C(=O)O)CCC1` [Example 120], the figures for the IC50 in series [1] and in series [2] were 11 nM and 2.5 nM, respectively.
As for `Cc1ccc([C@@H]2c3[nH]c4ccccc4c3C[C@@H](C)N2CC(F)(F)F)cc1OCCNCCCF` [Example 19, 3-fluoro-N-(2-(2-methyl-5-((1R,3R)-3-methyl-2-(2,2,2-trifluoroethyl)-2,3,4,9-tetrahydro-1H-pyrido[3,4-b]indol-1-yl)phenoxy)ethyl)propan-1-amine], the solubility at 24 h in series [3] was found to be 5 µM (≈ 2.39 µg/mL).
Take `C[C@@H]1Cc2c([nH]c3ccc(F)cc23)[C@@H](c2c(F)ccc(OCCNCCCF)c2F)N1C[C@H](C)C(=O)O` [Example 59, (S)-3-((1R,3R)-1-(2,6-difluoro-3-(2-((3-fluoropropyl)amino)ethoxy)phenyl)-6-fluoro-3-methyl-1,3,4,9-tetrahydro-2H-pyrido[3,4-b]indol-2-yl)-2-methylpropanoic acid]: the IC50 stood at 2.3 nM in series [1] and 3.1 nM in series [2].
The corresponding values for `Cc1c(OCCN(C)CCCF)ncc(F)c1[C@@H]1c2[nH]c3ccccc3c2C[C@@H](C)N1CCC(=O)O` [Example 157, 3-((1R,3R)-1-(5-fluoro-2-(2-((3-fluoropropyl)(methyl)amino)ethoxy)-3-methylpyridin-4-yl)-3-methyl-1,3,4,9-tetrahydro-2H-pyrido[3,4-b]indol-2-yl)propanoic acid] are 1.8 nM and 1 nM.
Molecule `Cc1c(OCCNCCCF)ccc(F)c1[C@@H]1c2[nH]c3ccccc3c2C[C@@H](C)N1CC(F)(F)F` [Example 33, 3-fluoro-N-(2-(4-fluoro-2-methyl-3-((1R,3R)-3-methyl-2-(2,2,2-trifluoroethyl)-2,3,4,9-tetrahydro-1H-pyrido[3,4-b]indol-1-yl)phenoxy)ethyl)propan-1-amine] yielded a solubility at 24 h in series [3] of 8 µM (≈ 3.96 µg/mL).
`Cc1c(OCCN(C)CCCF)ncc(F)c1[C@@H]1c2[nH]c3ccc(F)cc3c2C[C@@H](C)N1CCC(=O)O` [Example 156, 3-((1R,3R)-6-fluoro-1-(5-fluoro-2-(2-((3-fluoropropyl)(methyl)amino)ethoxy)-3-methylpyridin-4-yl)-3-methyl-1,3,4,9-tetrahydro-2H-pyrido[3,4-b]indol-2-yl)propanoic acid]: the half-maximal inhibitory concentration (IC50) was found to be 1.2 nM in series [1] and 1.4 nM in series [2].
For the molecule `Cc1c(OCCNCCCF)ccc(F)c1[C@@H]1c2[nH]c3ccccc3c2C[C@@H](C)N1CCC(=O)O` [Example 116, 3-((1R,3R)-1-(6-fluoro-3-(2-((3-fluoropropyl)amino)ethoxy)-2-methylphenyl)-3-methyl-1,3,4,9-tetrahydro-2H-pyrido[3,4-b]indol-2-yl)propanoic acid], the solubility at 24 h in series [3] is greater than 1000 µM.
`C[C@@H]1Cc2c([nH]c3ccccc23)[C@@H](c2c(F)ccc(OCCN(C)CCCF)c2F)N1C[C@H](C)C(=O)O` [Example 144, (S)-3-((1R,3R)-1-(2,6-difluoro-3-(2-((3-fluoropropyl)(methyl)amino)ethoxy)phenyl)-3-methyl-1,3,4,9-tetrahydro-2H-pyrido[3,4-b]indol-2-yl)-2-methylpropanoic acid]: the concentration for half-maximal inhibition (IC50) in series [1] was 5.6 nM; in series [2], 7.9 nM. Moreover, the “% downregulation (in brackets)” value in series [2] (maximum downregulation) amounted to 88%.
`C[C@@H]1Cc2c([nH]c3ccccc23)[C@@H](c2cccc(OCCNCCCF)c2F)N1CC(F)(F)F` [Example 24, 3-fluoro-N-(2-(2-fluoro-3-((1R,3R)-3-methyl-2-(2,2,2-trifluoroethyl)-2,3,4,9-tetrahydro-1H-pyrido[3,4-b]indol-1-yl)phenoxy)ethyl)propan-1-amine] had a solubility at 24 h in series [3] of 88 µM (≈ 42.4 µg/mL).
In series [3], `C[C@@H]1Cc2c([nH]c3ccccc23)[C@@H](c2cc(F)cc(OCCNCCCF)c2)N1CC(F)(F)F` [Example 73, 3-fluoro-N-(2-(3-fluoro-5-((1R,3R)-3-methyl-2-(2,2,2-trifluoroethyl)-2,3,4,9-tetrahydro-1H-pyrido[3,4-b]indol-1-yl)phenoxy)ethyl)propan-1-amine] gave a solubility at 24 h of 7 µM (≈ 3.37 µg/mL).
For `Cc1c(OCCN(C)CCCF)ccc(F)c1[C@@H]1c2[nH]c3ccc(F)cc3c2C[C@@H](C)N1C[C@@H](C)C(=O)O` [Example 160, (R)-3-((1R,3R)-6-fluoro-1-(6-fluoro-3-(2-((3-fluoropropyl)(methyl)amino)ethoxy)-2-methylphenyl)-3-methyl-1,3,4,9-tetrahydro-2H-pyrido[3,4-b]indol-2-yl)-2-methylpropanoic acid], the concentration for half-maximal inhibition (IC50) in series [1] came out at 1.9 nM; in series [2], 0.36 nM.
For the molecule `CC[C@@H]1Cc2c([nH]c3ccccc23)[C@@H](c2c(F)ccc(OCCNCCCF)c2C)N1C[C@H](C)C(=O)O` [Example 122, (S)-3-((1R,3R)-3-ethyl-1-(6-fluoro-3-(2-((3-fluoropropyl)amino)ethoxy)-2-methylphenyl)-1,3,4,9-tetrahydro-2H-pyrido[3,4-b]indol-2-yl)-2-methylpropanoic acid], the values for the IC50 in series [1] and in series [2] were 4.9 nM and 0.39 nM, respectively.
Consider `Cc1c(OCCN(C)CCCF)ccc(F)c1[C@@H]1c2[nH]c3ccc(F)cc3c2C[C@@H](C)N1C[C@H](C)C(=O)O` [Example 146, (S)-3-((1R,3R)-6-fluoro-1-(6-fluoro-3-(2-((3-fluoropropyl)(methyl)amino)ethoxy)-2-methylphenyl)-3-methyl-1,3,4,9-tetrahydro-2H-pyrido[3,4-b]indol-2-yl)-2-methylpropanoic acid], for which the figures for the concentration for half-maximal inhibition (IC50) in series [1] and in series [2] were 1.1 nM and 0.4 nM, respectively.
The like results for `Cc1c(OCCNCCCF)ccc(F)c1[C@@H]1c2[nH]c3ccccc3c2C[C@@H](C)N1CC(C)(C)C(=O)O` [Example 119, 3-((1R,3R)-1-(6-fluoro-3-(2-((3-fluoropropyl)amino)ethoxy)-2-methylphenyl)-3-methyl-1,3,4,9-tetrahydro-2H-pyrido[3,4-b]indol-2-yl)-2,2-dimethyl-propanoic acid] were, in that order, 6.9 nM and 1 nM.
Take `C[C@@H](CN1[C@H](c2c(F)ccc(OCCNCCCF)c2Cl)c2[nH]c3ccccc3c2C[C@H]1C(F)F)C(=O)O` [Example 138, (S)-3-((1R,3S)-1-(2-chloro-6-fluoro-3-(2-((3-fluoropropyl)amino)ethoxy)phenyl)-3-(difluoromethyl)-1,3,4,9-tetrahydro-2H-pyrido[3,4-b]indol-2-yl)-2-methylpropanoic acid]: the 50% inhibitory concentration (IC50) in series [1] and in series [2] was 1.6 nM in each case.
For the molecule `COc1ccc(OCCNCCCF)cc1[C@@H]1c2[nH]c3ccccc3c2C[C@@H](C)N1CC1(F)CC1` [Example 52, 3-fluoro-N-(2-(3-((1R,3R)-2-((1-fluorocyclopropyl)methyl)-3-methyl-2,3,4,9-tetrahydro-1H-pyrido[3,4-b]indol-1-yl)-4-methoxyphenoxy)ethyl)propan-1-amine], the IC50 is 0.58 nM in series [1] and 0.34 nM in series [2].
